Data as given in patent publication US4017606A, “Organic compounds and process” (The Upjohn Company, priority 1975, dated 1977).

How the values were obtained:
[1] = Serum half life of cytosine arabinoside in beagle dogs with or without tetrahydrouridine; conditions: dog, in vivo
From the text: (§1) This is especially reflected in a drop in the blood level of cytosine arabinoside, usually concomitant with an increase in uracil arabinoside. This destruction of cytosine arabinoside is brought about by a deaminase enzyme present in the blood and tissues of the animal. […] For example, deamination of cytosine arabinoside in rhesus monkey blood by liver deaminase was inhibited about 90% by the addition of one part of 4-hydroxyl-1-β-D-ribofuranosyl-tetrahydro-2(1H)-pyrimidinone (tetrahydrouridine) to 820 parts of cytosine arabinoside.

[2] = system: myelogenous leukemia; conditions: adults; 1 to 5 mg./kg. weekly intravenously or subcutaneously as maintenance; cited from earlier work
[3] = biological target: deaminase enzymes (centrifuged 25 percent homogenate of normal human liver) (Homo sapiens, UniProt P32320); experiment: Competitive efficacy (C.E.) test: inhibition of cytosine arabinoside deamination; conditions: 1.0 micromole tritiated Ca, pH 8.0, 37° C., 45 minutes
deaminase enzymes (centrifuged 25 percent homogenate of normal human liver), sequence (P32320 whole entry): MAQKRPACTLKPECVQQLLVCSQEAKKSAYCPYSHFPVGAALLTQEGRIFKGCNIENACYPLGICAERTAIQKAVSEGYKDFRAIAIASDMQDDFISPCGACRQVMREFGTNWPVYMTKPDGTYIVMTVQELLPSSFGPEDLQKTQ
Description: The inhibition of cytosine arabinoside deamination by a compound is conveniently expressed in terms of its competitive efficacy (C.E.). The competitive efficacy of a compound is determined as follows:
Enzyme reaction mixture are prepared in 12-ml. centrifuge tubes in an ice bath. […] This is the standard reaction mixture. […] The tubes are then assayed for radioactive uracil arabinoside as described below, and the percent conversion of tritiated Ca to tritiated uracil arabinosie is calculated. A standard curve of the percent conversion vs. log10 of the initial ratio of untritiated Ca to tritiated Ca is plotted. This is the standard curve for the C.E. test.
Reaction mixture for C.E. test.
To determine the C.E. of a compound, known amounts of the compound are added to the above standard reaction mixture and the percent conversion of tritiated Ca to tritiated uracil arabinoside is measured. […] From this ratio and the amount of test compound in the assay reaction mixture, the C.E. is calculated. […]
After 45 minute incubation of the enzyme reaction mixtures, further reaction is stopped by the addition of one-half volume of iced, 15 percent trichloroacetic acid. […] Suitable quantities (4 microliters) of clear supernatant solution are co-chromatographed with a mixture of 40 millimicromoles each of non-tritiated carrier Ca and uracil arabinoside on Whatman No. 40 paper. […]

[4] = system: liver deaminase; experiment: Deamination of cytosine arabinoside in rhesus monkey blood by liver deaminase; format: biochemical; conditions: one part of tetrahydrouridine to 820 parts of cytosine arabinoside
From the text: as §1

## Nc1ccn([C@@H]2O[C@H](CO)[C@@H](O)[C@@H]2O)c(=O)n1 [cytosine arabinoside, 1-β-D-arabinofuranosylcytosine, reference compound]
[1]; control dogs without tetrahydrouridine, 50 mg./kg. cytosine arabinoside intravenous
  half-life: 1.1 to 1.33 h
[2]
  duration of remission of myelogenous leukemia (bone marrow response): more than 203 days

## O=C1NCCCN1[C@@H]1O[C@H](CO)[C@@H](O)[C@H]1O [E]
[3]
  Competitive Efficacy: 200

## O=C1NC(O)CCN1[C@@H]1O[C@H](CO)[C@@H](O)[C@H]1O (single isomer, unassigned) [tetrahydrouridine, 4-hydroxy-1-β-D-ribofuranosyl-tetrahydro-2(1H)-pyrimidinone]
[1]; iv
  half life of cytosine arabinoside in the serum: 2.27 to 3 h
[4]
  inhibition of deamination of cytosine arabinoside: about 90%
